Results published in US6924298B2, “2-(3,5-Disubstituted-4-pyridyl)-4-(thienyl, thiazolyl or arylphenyl)-1,3-oxazoline compounds” (Dow AgroSciences LLC, priority 2000, dated 2005).
Like-named read-outs stand apart in the source and are kept apart here.

Key:
Format in all cases: in vivo
[1] = system: beet armyworm (Spodoptera exigua); assay: Insecticidal test for beet armyworm, treated lepidopteran diet; settings: for pest or weed control at 400 ppm: Spodoptera exigua, 120 h, read-out: BAW: activity at 400 ppm against beet armyworm (% Control rating)
Description: (§1) Insecticidal Test for Tobacco Budworm (Heliothis virescens), Beet Armyworm (Spodoptera exigua), and Cabbage Looper (Trichoplusia ni).
(§2) To prepare the test solution, the test compound was formulated at 400 ppm in 7.5 mL of 2 acetone:1 tap water. 250 μL of the test solution was pipetted upon the surface of 8 mL of lepidopteran diet (modified Shorey) contained in each of five one-ounce plastic cups (one cup=1 replication). A second-instar beet armyworm was placed upon the treated diet in each cup once the solvent had air-dried. The solutions remaining after completing applications to the one-ounce cups were then used as leaf-dip solutions for 3.5 cm leaf discs cut from cabbage leaves and cotton cotyledons. Five discs of each type of plant were dipped until thoroughly coated into each rate of each compound (=5 replications of each treatment). After air-drying, the treated leaf discs were placed individually into one-ounce plastic cups. Each dried, treated cotton cotyledon disc was infested with a 2nd instar tobacco budworm larva, and each cabbage leaf disc was infested with a 2nd instar cabbage looper larva. Cups containing the treated substrates and larvae were capped and then held in a growth chamber at 25° C., 50-55% RH, and 14 hr light: 10 hr dark for 5 days.

[2] = system: two-spotted spider mite (Tetranychus urticae); assay: Insecticidal test for two-spotted spider mite, ovicide method on cotton leaf discs; settings: hatched larvae after 6 days; for pest or weed control: Tetranychus urticae, foliar, 144 h, read-out: SM: activity against two-spotted spider mite (% Control rating)
Description: Insecticidal Test for Two-Spotted Spider Mite (Tetranychus urticae) Ovicide Method: Ten adult female two-spotted spider mites were placed on eight 2.2 cm leaf discs of cotton leaf, allowed to oviposit over 24 hours, and thereafter removed. […] Discs were placed on an agar substrate and held at 24° C. and 90% RH for 6 days.

[3] = system: cotton aphid (Aphis gossypii); assay: Insecticidal test for cotton aphid, spray on infested squash cotyledons; settings: for pest or weed control at 50 ppm: Aphis gossypii, 72 h, read-out: CA: activity at 50 ppm against cotton aphid (% Control rating)
Description: Insecticidal Test for Cotton Aphid (Aphis gossypii)
To prepare spray solutions, 1 mg of each test compound was dissolved into 1 mL of a 90:10 acetone:ethanol solvent. This 1 mL of chemical solution was added to 19 mL of water containing 0.05% Tween 20 surfactant to produce a 50 ppm spray solution.
Squash cotyledons were infested with cotton aphid (all life stages)16-20 hours prior to application of spray solution. The solution was sprayed on both sides of each infested squash cotyledon (0.5 mL×2 each side) with a sweeping action until runoff. The plants were allowed to air dry and held for 3 days in a controlled room at 26° C. and 40% RH after which time the test was graded. Grading was by actual count using a dissecting microscope and comparison of test counts to the untreated check. Results are given in Tables 1-4 as percent control based on population reduction versus the untreated.

[4] = system: cabbage looper (Trichoplusia ni); assay: Insecticidal test for cabbage looper, treated cabbage leaf disc; settings: for pest or weed control at 400 ppm: Trichoplusia ni, foliar, 120 h, read-out: CL: activity at 400 ppm against cabbage looper (% Control rating)
Description: as §1, §2

[5] = system: tobacco budworm (Heliothis virescens); assay: Insecticidal test for tobacco budworm, treated cotton cotyledon leaf disc; settings: for pest or weed control at 400 ppm: Heliothis virescens, foliar, 120 h, read-out: TBW: activity at 400 ppm against tobacco budworm (% Control rating)
Description: as §1, §2

[6] = system: sweetpotato whitefly (Bemisia tabacia); assay: Insecticidal test for sweetpotato whitefly, spray on cotton plants; settings: 312 h, 200 ppm spray, large nymphs counted after 13 days, read-out: WF: activity at 200 ppm against whitefly (% Control rating)
Description: Insecticidal Test for Sweetpotato Whitefly (Bemisia tabacia)
Four mg of each test compound was dissolved by adding 4 mL of a 90:10 acetone:ethanol solvent mixture to the vial containing the sample compound. This solution was added to 16 mL of water containing 0.05% Tween 20 surfactant to produce 20 mL of a 200 ppm spray solution.
Five-week-old cotton plants reared in a greenhouse were stripped of all foliage except for the two uppermost true leaves that were greater than 5 cm in diameter.
These plants were then placed into a laboratory colony of whiteflies for two days for oviposition by the colony females. All whiteflies were then removed from the test plants with pressurized air. The spray solution was then applied to the test plants with a hand-held syringe fitted with hollow cone nozzle. One mL of spray solution was applied to each leaf top and bottom for a total of 4 mL per plant. Four replications of each test compound utilized a total of 16 mL spray solution. Plants were air dried and then placed in a holding chamber (28° C. and 60% RH) for 13 days. Compound efficacy was evaluated by counting, under an illuminated magnifying glass, the number of large nymphs (3rd-4th instar) per leaf.
Percent control based on reduction of large nymphs of a test compound compared to solution-only (no test compound) sprayed plants is reported in Tables 1-4.

[7] = 400 ppm, treated diet surface, second-instar larvae, 5 days
[8] = 50 ppm spray, squash cotyledons, all life stages, 3 days
[9] = 400 ppm, leaf-dip cabbage leaf disc, 2nd instar larvae, 5 days
[10] = 400 ppm, leaf-dip cotton cotyledon disc, 2nd instar larvae, 5 days

| Molecule | pest or weed control [2] [%] | pest or weed control at 400 ppm [1, 7] [%] | pest or weed control at 50 ppm [3, 8] [%] | pest or weed control at 400 ppm [4, 9] [%] | pest or weed control at 400 ppm [5, 10] [%] | pest or weed control at 200 ppm [6] [%] | also measured |
| --- | --- | --- | --- | --- | --- | --- | --- |
| 4-[5-Methyl-4-(4′-trifluoromethoxybiphenyl)-4-yl)-4,5-dihydro-oxazol-2-yl]-3,5-dichloropyridines [Compound 47] | – | – | – | – | – | – | BAW: activity at 400 ppm against beet armyworm (% Control rating) [1, 7]: A (90-100); SM: activity at 2.5 ppm against two-spotted spider mite (% Control rating) [2]: A (90-100); CA: activity at 50 ppm against cotton aphid (% Control rating) [3, 8]: A (90-100); CL: activity at 400 ppm against cabbage looper (% Control rating) [4, 9]: A (90-100); TBW: activity at 400 ppm against tobacco budworm (% Control rating) [5, 10]: A (90-100) |
| Cc1cccc(-c2ccc(C3COC(c4c(Cl)cncc4Cl)=N3)cc2)c1 (stereo not drawn) [Compound 27] | 80 to 89 | – | – | – | – | – | pest or weed control at 400 ppm [1]: 90 to 100%; pest or weed control at 50 ppm [3]: 90 to 100%; pest or weed control at 400 ppm [4]: 90 to 100%; pest or weed control at 400 ppm [5]: < 50% |
| Fc1ccc(-c2ccc(C3COC(c4c(Cl)cncc4Cl)=N3)cc2)cc1C(F)(F)F (stereo not drawn) [Compound 29] | 70 to 79 | 80 to 89 | < 50 | 90 to 100 | 80 to 89 | – | – |
| Cc1cc(-c2ccc(C(F)(F)F)cc2)ccc1C1COC(c2c(Cl)cncc2Cl)=N1 (stereo not drawn) [Compound 43, 2-(3,5-dichloro-4-pyridinyl)-4-(4-(4-trifluoromethylphenyl)-2-methylphenyl)-oxazoline] | 80 to 89 | 90 to 100 | 80 to 89 | 90 to 100 | 90 to 100 | < 50 | – |
| CCOc1ccc(-c2ccc(C3COC(c4c(Cl)cncc4Cl)=N3)cc2)cc1 (stereo not drawn) [Compound 12, 2-(3,5-dichloro-4-pyridinyl)-4-(4-(4-ethoxyphenyl)phenyl)oxazoline] | 90 to 100 | 90 to 100 | 80 to 89 | 60 to 69 | 80 to 89 | 80 to 89 | – |
| Clc1ccc(-c2ccc(C3COC(c4c(Cl)cncc4Cl)=N3)cc2)cc1 (stereo not drawn) [Compound 16] | 90 to 100 | – | – | – | – | – | pest or weed control at 400 ppm [1]: 90 to 100%; pest or weed control at 50 ppm [3]: < 50%; pest or weed control at 400 ppm [4]: 90 to 100%; pest or weed control at 400 ppm [5]: 60 to 69% |
| C[S+]([O-])c1ccc(-c2ccc(C3COC(c4c(Cl)cncc4Cl)=N3)cc2)cc1 (stereo not drawn) [Compound 36] | – | – | < 50 | 90 to 100 | 60 to 69 | < 50 | – |
| Fc1c(-c2ccc(C3COC(c4c(Cl)cncc4Cl)=N3)cc2)cccc1C(F)(F)F (stereo not drawn) [Compound 31] | < 50 | – | – | – | 60 to 69 | – | – |
| Fc1cc(C(F)(F)F)ccc1-c1ccc(C2COC(c3c(Cl)cncc3Cl)=N2)cc1 (stereo not drawn) [Compound 32] | 90 to 100 | 90 to 100 | 70 to 79 | – | 90 to 100 | 90 to 100 | – |
| C[C@H]1OC(c2c(Cl)cncc2Cl)=N[C@@H]1c1ccc(-c2ccc(OC(F)(F)F)cc2)cc1 [Compound 48] | 50 to 59 | – | 80 to 89 | 90 to 100 | 90 to 100 | < 50 | – |
| Fc1cncc(F)c1C1=NC(c2ccc(-c3ccc(C(F)(F)F)cc3)cc2)CO1 (stereo not drawn) [Compound 39, 2-(3,5-difluoro-4-pyridinyl)-4-(4-(4-trifluoromethylphenyl)phenyl)-oxazoline] | 90 to 100 | 80 to 89 | < 50 | 90 to 100 | – | < 50 | – |
| FC(F)(F)Oc1ccc(-c2ccc(C3COC(c4c(Cl)cncc4Cl)=N3)cc2)cc1 (stereo not drawn) [Compound 6] | 90 to 100 | 90 to 100 | 90 to 100 | 90 to 100 | – | < 50 | – |
| Cc1cc(-c2ccc(OC(F)(F)F)cc2)ccc1C1COC(c2c(Cl)cncc2Cl)=N1 (stereo not drawn) [Compound 44, 2-(3,5-dichloro-4-pyridinyl)-4-(4-(4-trifluoromethoxyphenyl)-2-methylphenyl)-oxazoline] | 90 to 100 | 90 to 100 | 80 to 89 | 90 to 100 | 90 to 100 | 50 to 59 | – |
| CC(C)c1ccc(-c2ccc(C3COC(c4c(Cl)cncc4Cl)=N3)cc2)cc1 (stereo not drawn) [Compound 30] | 70 to 79 | 90 to 100 | < 50 | 60 to 69 | – | < 50 | – |
| FC(F)(F)c1ccc(-c2ccc(C3COC(c4c(Cl)cncc4Cl)=N3)cc2)cc1 (stereo not drawn) [Compound 5] | 90 to 100 | 90 to 100 | 80 to 89 | 90 to 100 | < 50 | < 50 | – |
